Data reported in patent US20020164663A1, “Methods and compositions for detection, diagnosis and prediction of antiestrogen-resistant breast cancer” (BOARD OF REGENTS, THE UNIVERSITY OF TEXAS SYSTEM, priority 1998, published 2002).

Columns and labels:
[1] = test system: MCF-7 tumors; experiment: MCF-7 tumors in mammary fat pads of athymic nude mice, tamoxifen treatment after removal of estrogen pellet; format: in vivo; conditions: athymic nude mice with MCF-7 tumors; estrogen pellets removed, treated with tamoxifen; later tumors became resistant and growth resumed
Protocol: (§1) MCF-7 tumors were inoculated into the mammary fat pads of athymic nude mice supplemented with an estrogen pellet as described previously (Osborne et al., 1985) until tumors arose. The estrogen pellets were removed and the animals were treated with tamoxifen. […] Invariably, however, after initial growth suppression, the tumors became resistant and growth resumed. Animals were sacrificed at various times to obtain cells from estrogen-stimulated (ES) tumors prior to tamoxifen treatment, from tamoxifen-sensitive (TS) tumors during tamoxifen treatment but prior to acquired resistance, and from tamoxifen-resistant (TR) tumors after tumor growth had resumed.

[2] = test system: bFGFR; experiment: cDNA expression array of MCF-7 tumors (estrogen-stimulated, tamoxifen-sensitive, tamoxifen-resistant); format: in vivo, human; conditions: breast cancers treated with tamoxifen in comparison with estrogen-stimulated breast cancer; FIG. 6
Protocol: as §1
(§2) RNA was prepared from these tumors (n=5 tumors per group) using RNeasy kits (Qiagen Inc., Valencia, Calif.), and mRNA was isolated on Dynabeads (Dyne, Oslo, Norway) according to manufacturer's instructions. […]
(§3) The controls, which were more difficult to quantitate reliably, were not included in the statistical analyses. […]
(§4) Principal Components Analysis (PCA) of mean-centered log-transformed data, based on the variance-covariance matrix (Tatsuoka, 1971), was then used to standardize across the three hybridizations and to extract three new axes (components P1, P2, and P3), expressed as linear combinations of the original axes (ES, TS, and TR). […]

[3] = test system: VEGF; experiment: as above; format: in vivo, human; conditions: breast cancers treated with tamoxifen in comparison with estrogen-stimulated breast cancer; FIG. 6
Protocol: as §1, §2, §3, §4

SMILES: CC/C(=C(\c1ccccc1)c1ccc(OCCN(C)C)cc1)c1ccccc1 [tamoxifen]
- Tumor volumes [1]: declined and remained stable for several months
- bFGFR expression [2]: decreased expression
- VEGF expression [3]: decreased expression
